Target: PimD (Streptomyces natalensis, UniProt Q9EW92)
Assay: UV-visible difference spectrophotometric titration
Type: binding

Kd: 4 µM
Compound: C[C@@H]1C/C=C/C=C/C=C/C=C/[C@H](O[C@@H]2O[C@H](C)[C@@H](O)[C@H](N)[C@@H]2O)C[C@@H]2O[C@](O)(C[C@@H](O)C/C=C/C=C/C(=O)O1)C[C@H](O)[C@H]2C(=O)O [4,5-desepoxypimaricin]
